Data as given in patent US20090304692A1, “TRIAZINE COMPOUNDS AS PI3 KINASE AND MTOR INHIBITORS” (Wyeth, priority 2008, published 2009).
Like-named read-outs stand apart in the source and are kept apart here.

What was measured:
Human mTOR (FLAG-TOR) = Human mTOR (FLAG-TOR) (Homo sapiens, UniProt P42345); test: mTOR kinase assay (DELFIA format, purified enzyme); type: biochemical; conditions: read-out: IC50 mTOR
PI3K-α = PI3K-α (Homo sapiens, UniProt P42336); test: PI3K-alpha fluorescence polarization assay
Sequence of PI3K-α (P42336 whole entry, species assumed): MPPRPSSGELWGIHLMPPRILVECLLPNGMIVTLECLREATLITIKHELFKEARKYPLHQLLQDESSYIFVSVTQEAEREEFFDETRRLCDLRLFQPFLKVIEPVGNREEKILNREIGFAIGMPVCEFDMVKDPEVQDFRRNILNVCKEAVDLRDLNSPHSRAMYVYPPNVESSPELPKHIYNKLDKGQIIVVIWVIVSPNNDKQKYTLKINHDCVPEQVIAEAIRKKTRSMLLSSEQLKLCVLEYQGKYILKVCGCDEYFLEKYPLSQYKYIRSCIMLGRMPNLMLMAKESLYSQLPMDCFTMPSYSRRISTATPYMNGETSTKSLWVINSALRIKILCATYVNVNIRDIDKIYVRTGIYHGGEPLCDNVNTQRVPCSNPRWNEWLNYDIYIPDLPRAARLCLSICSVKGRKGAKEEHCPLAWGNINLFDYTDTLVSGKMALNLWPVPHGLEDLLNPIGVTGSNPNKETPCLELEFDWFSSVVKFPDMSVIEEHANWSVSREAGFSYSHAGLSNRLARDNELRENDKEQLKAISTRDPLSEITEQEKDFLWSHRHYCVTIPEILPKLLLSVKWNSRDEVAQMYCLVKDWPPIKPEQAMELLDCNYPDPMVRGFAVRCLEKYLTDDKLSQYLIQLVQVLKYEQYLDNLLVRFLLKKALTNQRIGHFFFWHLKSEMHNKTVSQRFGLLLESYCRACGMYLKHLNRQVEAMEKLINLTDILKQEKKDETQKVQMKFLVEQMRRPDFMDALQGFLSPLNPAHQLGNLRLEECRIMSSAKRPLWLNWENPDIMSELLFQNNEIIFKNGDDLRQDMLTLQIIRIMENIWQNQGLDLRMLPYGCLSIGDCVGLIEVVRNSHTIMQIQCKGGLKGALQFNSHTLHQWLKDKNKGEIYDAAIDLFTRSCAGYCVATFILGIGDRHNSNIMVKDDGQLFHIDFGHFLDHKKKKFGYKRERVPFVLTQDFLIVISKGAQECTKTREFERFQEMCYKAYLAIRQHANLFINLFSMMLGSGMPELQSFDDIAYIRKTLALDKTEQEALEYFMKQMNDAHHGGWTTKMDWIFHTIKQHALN
Sequence of PI3K-α (P27986 whole entry partner, species assumed): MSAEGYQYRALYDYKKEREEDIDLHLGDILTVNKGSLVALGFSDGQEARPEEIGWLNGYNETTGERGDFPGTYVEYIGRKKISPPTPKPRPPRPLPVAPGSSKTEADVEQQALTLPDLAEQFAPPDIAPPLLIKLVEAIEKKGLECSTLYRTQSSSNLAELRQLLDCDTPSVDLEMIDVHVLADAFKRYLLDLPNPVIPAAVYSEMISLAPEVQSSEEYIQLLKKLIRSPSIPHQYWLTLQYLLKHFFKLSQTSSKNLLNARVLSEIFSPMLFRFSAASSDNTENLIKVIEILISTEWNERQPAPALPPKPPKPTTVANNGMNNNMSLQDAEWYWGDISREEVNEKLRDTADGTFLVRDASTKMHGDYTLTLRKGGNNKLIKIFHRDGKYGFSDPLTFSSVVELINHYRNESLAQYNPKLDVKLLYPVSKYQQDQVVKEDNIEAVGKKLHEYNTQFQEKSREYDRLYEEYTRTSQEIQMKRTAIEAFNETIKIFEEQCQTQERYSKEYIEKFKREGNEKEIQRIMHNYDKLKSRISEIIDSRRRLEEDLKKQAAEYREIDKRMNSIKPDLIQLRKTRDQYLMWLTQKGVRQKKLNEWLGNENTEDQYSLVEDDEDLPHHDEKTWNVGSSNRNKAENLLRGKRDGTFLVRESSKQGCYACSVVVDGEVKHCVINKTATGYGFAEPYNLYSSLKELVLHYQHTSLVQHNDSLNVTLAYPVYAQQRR

[1] = tested on: human prostate LNCap tumor cell line; test: In vitro cell culture growth assay (MTS), LNCap; conditions: read-out: IC50 LNCap
PI3K-γ = PI3K-γ (Homo sapiens, UniProt P48736); test: PI3K-gamma fluorescence polarization assay; conditions: read-out: IC50 PI3Kγ
Sequence of PI3K-γ (P48736 whole entry, species assumed): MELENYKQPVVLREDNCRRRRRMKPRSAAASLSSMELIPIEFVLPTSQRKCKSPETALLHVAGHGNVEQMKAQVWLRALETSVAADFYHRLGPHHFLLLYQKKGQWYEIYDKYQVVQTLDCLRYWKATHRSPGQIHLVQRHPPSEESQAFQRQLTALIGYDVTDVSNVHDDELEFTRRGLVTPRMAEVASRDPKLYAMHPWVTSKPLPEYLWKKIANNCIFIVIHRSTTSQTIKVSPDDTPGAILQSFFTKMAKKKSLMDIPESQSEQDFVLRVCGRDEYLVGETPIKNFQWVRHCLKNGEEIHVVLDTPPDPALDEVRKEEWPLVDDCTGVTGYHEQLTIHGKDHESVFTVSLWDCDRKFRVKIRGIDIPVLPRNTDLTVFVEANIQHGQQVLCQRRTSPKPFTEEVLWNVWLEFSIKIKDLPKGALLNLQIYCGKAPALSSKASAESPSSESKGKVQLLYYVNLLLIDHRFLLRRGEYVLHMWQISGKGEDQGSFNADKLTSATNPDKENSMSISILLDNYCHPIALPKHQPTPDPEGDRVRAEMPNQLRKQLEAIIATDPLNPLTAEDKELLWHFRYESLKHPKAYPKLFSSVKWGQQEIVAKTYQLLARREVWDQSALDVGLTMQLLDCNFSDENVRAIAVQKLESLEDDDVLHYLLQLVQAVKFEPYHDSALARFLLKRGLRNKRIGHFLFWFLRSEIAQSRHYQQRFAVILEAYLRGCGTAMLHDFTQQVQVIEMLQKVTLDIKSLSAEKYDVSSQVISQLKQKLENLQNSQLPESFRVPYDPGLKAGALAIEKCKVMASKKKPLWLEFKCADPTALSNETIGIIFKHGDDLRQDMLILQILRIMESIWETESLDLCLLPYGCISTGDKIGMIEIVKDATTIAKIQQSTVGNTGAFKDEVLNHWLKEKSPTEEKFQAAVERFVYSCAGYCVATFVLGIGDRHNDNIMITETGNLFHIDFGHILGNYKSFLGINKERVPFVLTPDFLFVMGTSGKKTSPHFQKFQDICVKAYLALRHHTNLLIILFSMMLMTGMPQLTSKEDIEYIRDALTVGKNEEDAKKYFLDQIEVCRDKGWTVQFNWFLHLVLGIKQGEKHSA

Sequence of Human mTOR (FLAG-TOR) (P42345 1360-2549 limits assumed): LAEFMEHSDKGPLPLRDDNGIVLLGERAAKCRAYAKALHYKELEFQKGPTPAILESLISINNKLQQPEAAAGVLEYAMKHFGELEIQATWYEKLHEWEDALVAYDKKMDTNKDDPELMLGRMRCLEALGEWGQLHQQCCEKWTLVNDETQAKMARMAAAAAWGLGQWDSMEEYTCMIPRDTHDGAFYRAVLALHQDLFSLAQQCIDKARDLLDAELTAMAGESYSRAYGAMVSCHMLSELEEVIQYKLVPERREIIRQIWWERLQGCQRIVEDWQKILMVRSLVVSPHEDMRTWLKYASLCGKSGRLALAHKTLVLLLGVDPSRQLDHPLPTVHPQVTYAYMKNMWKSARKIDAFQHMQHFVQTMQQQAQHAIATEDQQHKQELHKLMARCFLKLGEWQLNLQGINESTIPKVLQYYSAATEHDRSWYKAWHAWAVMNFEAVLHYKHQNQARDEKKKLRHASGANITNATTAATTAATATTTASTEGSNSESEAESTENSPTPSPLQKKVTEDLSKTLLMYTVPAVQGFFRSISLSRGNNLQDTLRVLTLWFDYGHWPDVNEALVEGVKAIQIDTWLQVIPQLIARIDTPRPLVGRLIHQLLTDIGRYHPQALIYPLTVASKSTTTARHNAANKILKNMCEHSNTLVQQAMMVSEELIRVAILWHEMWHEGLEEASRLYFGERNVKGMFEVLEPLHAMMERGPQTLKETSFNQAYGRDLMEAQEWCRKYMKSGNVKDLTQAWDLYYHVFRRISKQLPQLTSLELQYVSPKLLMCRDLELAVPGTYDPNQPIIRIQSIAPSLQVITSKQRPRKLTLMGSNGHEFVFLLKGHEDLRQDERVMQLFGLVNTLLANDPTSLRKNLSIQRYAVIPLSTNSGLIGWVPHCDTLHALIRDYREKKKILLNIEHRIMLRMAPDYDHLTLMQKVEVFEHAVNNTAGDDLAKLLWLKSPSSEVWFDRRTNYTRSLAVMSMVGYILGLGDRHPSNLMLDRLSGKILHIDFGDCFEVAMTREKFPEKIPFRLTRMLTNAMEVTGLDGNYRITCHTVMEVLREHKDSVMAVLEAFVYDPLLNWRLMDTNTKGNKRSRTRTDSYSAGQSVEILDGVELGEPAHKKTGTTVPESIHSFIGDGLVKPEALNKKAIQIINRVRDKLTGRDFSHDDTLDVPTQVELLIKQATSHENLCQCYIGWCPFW

IC50 (Human mTOR (FLAG-TOR)) [nM]	IC50 (PI3K-α; read-out: IC50 PI3Kα) [nM]	IC50 ([1]; Homo sapiens, LNCaP, 72 h) [nM]	IC50 (PI3K-α) [nM]	Compound	IC50 (PI3K-γ) [nM]	IC50 ([1]; MTS cell growth assay, three days after drug treatment, LNCap cells) [nM]
2.5	680	190		CNC(=O)Nc1ccc(-c2nc(N3CC4CCC(C3)O4)nc(N3CC4CCC(C3)O4)n2)cc1 [Example 26, 1-[4-(4,6-di-8-oxa-3-azabicyclo[3.2.1]oct-3-yl-1,3,5-triazin-2-yl)phenyl]-3-methylurea]		
3.7		120		O=C(Nc1ccncc1)Nc1ccc(-c2nc(N3CCN(C(=O)c4ccncc4)CC3)nc(N3CC4CCC(C3)O4)n2)cc1 [Example 113, 1-{4-[4-(4-isonicotinoylpiperazin-1-yl)-6-(8-oxa-3-azabicyclo[3.2.1]oct-3-yl)-1,3,5-triazin-2-yl]phenyl}-3-pyridin-4-ylurea]		
31	1330	30000		O=C(O)CNC1CCN(c2nc(-c3ccc(NC(=O)Nc4ccncc4)cc3)nc(N3CC4CCC(C3)O4)n2)CC1 [Example 128, 2-(1-(4-(8-oxa-3-azabicyclo[3.2.1]octan-3-yl)-6-(4-(3-pyridin-4-ylureido)phenyl)-1,3,5-triazin-2-yl)piperidin-4-ylamino)acetic acid]		
43.5		680		FC(F)c1nc2ccccc2n1-c1nc(N2CC3CCC(C2)O3)nc(N2CC3CCC(C2)O3)n1 [Example 138, 2-(difluoromethyl)-1-(4,6-di-8-oxa-3-azabicyclo[3.2.1]oct-3-yl-1,3,5-triazin-2-yl)-1H-benzimidazole]		
74		180		FC(F)c1nc2ccccc2n1-c1nc(N2CCOCC2)nc(N2CC3CCC(C2)O3)n1 [Example 139, 2-(difluoromethyl)-1-[4-morpholin-4-yl-6-(8-oxa-3-azabicyclo[3.2.1]oct-3-yl)-1,3,5-triazin-2-yl]-1H-benzimidazole]		
3		5	> 10000	CN1CCN(c2ccc(NC(=O)Nc3ccc(-c4nc(-c5ccc(NC(=O)NC6CC6)cc5)nc(N5CC6CCC(C5)O6)n4)cc3)cc2)CC1 [Example 146, 1-cyclopropyl-3-(4-{4-[4-({[4-(4-methylpiperazin-1-yl)phenyl]carbamoyl}amino)phenyl]-6-(8-oxa-3-azabicyclo[3.2.1]oct-3-yl)-1,3,5-triazin-2-yl}phenyl)urea]		
15	868	4200		O=C(Nc1ccc(-c2nc(NCCO)nc(N3CC4CCC(C3)O4)n2)cc1)Nc1cccnc1 [Example 153, 1-(4-{4-[(2-hydroxyethyl)amino]-6-(8-oxa-3-azabicyclo[3.2.1]oct-3-yl)-1,3,5-triazin-2-yl}phenyl)-3-pyridin-3-ylurea]		
53	746	22000		NCCCNc1nc(-c2ccc(NC(=O)Nc3cccnc3)cc2)nc(N2CC3CCC(C2)O3)n1 [Example 156, 1-(4-{4-[(3-aminopropyl)amino]-6-(8-oxa-3-azabicyclo[3.2.1]oct-3-yl)-1,3,5-triazin-2-yl}phenyl)-3-pyridin-3-ylurea]		
8	435	9500		CN1CCCN(c2nc(-c3ccc(NC(=O)Nc4cccnc4)cc3)nc(N3CC4CCC(C3)O4)n2)C1 [Example 172, 1-{4-[4-(3-methyltetrahydropyrimidin-1(2H)-yl)-6-(8-oxa-3-azabicyclo[3.2.1]oct-3-yl)-1,3,5-triazin-2-yl]phenyl}-3-pyridin-3-ylurea]		
84	1210	2500		O=C(Nc1ccc(-c2nc(OCCN3CCCCC3)nc(N3CC4CCC(C3)O4)n2)cc1)Nc1cccnc1 [Example 173, 1-{4-[4-(8-oxa-3-azabicyclo[3.2.1]oct-3-yl)-6-(2-piperidin-1-ylethoxy)-1,3,5-triazin-2-yl]phenyl}-3-pyridin-3-ylurea]		
27		600		CCN(CC)c1nc(-c2ccc(NC(=O)Nc3cccnc3)cc2)nc(N2CC3CCC(C2)O3)n1 [Example 194, 1-{4-[4-(diethylamino)-6-(8-oxa-3-azabicyclo[3.2.1]oct-3-yl)-1,3,5-triazin-2-yl]phenyl}-3-pyridin-3-ylurea]		
5.5		700		CCN(C)c1nc(-c2ccc(NC(=O)Nc3cccnc3)cc2)nc(N2CC3CCC(C2)O3)n1 [Example 202, 1-(4-{4-[ethyl(methyl)amino]-6-(8-oxa-3-azabicyclo[3.2.1]oct-3-yl)-1,3,5-triazin-2-yl}phenyl)-3-pyridin-3-ylurea]		
1		78		CCC(C)Nc1nc(-c2ccc(NC(=O)Nc3cccnc3)cc2)nc(N2CC3CCC(C2)O3)n1 (centres unmarked) [Example 203, 1-{4-[4-(sec-butylamino)-6-(8-oxa-3-azabicyclo[3.2.1]oct-3-yl)-1,3,5-triazin-2-yl]phenyl}-3-pyridin-3-ylurea]		
3.5		6000		O=C(Nc1ccc(-c2nc(NC(CO)CO)nc(N3CC4CCC(C3)O4)n2)cc1)Nc1cccnc1 [Example 204, 1-{4-[4-{[2-hydroxy-1-(hydroxymethyl)ethyl]amino}-6-(8-oxa-3-azabicyclo[3.2.1]oct-3-yl)-1,3,5-triazin-2-yl]phenyl}-3-pyridin-3-ylurea]		
2		400		O=C(Nc1ccc(-c2nc(N(CCO)CCO)nc(N3CC4CCC(C3)O4)n2)cc1)Nc1cccnc1 [Example 205, 1-(4-{4-[bis(2-hydroxyethyl)amino]-6-(8-oxa-3-azabicyclo[3.2.1]oct-3-yl)-1,3,5-triazin-2-yl}phenyl)-3-pyridin-3-ylurea]		
56		5100		O=C(Nc1ccc(-c2nc(N3CC4CCC(C3)O4)nc(N3C[C@@H]4C[C@H]3CN4)n2)cc1)Nc1cccnc1 [Example 206, 1-(4-{4-[(1S,4S)-2,5-diazabicyclo[2.2.1]hept-2-yl]-6-(8-oxa-3-azabicyclo[3.2.1]oct-3-yl)-1,3,5-triazin-2-yl}phenyl)-3-pyridin-3-ylurea]		
0.84		33.3		CN1CCN(c2ccc(Nc3nc(-c4ccc(NC(=O)Nc5cccnc5)cc4)nc(N4CC5CCC(C4)O5)n3)cc2)CC1 [Example 207, 1-{4-[4-{[4-(4-methylpiperazin-1-yl)phenyl]amino}-6-(8-oxa-3-azabicyclo[3.2.1]oct-3-yl)-1,3,5-triazin-2-yl]phenyl}-3-pyridin-3-ylurea]		
0.5		50		O=C(Nc1ccc(-c2nc(Nc3ccc(N4CCNCC4)cc3)nc(N3CC4CCC(C3)O4)n2)cc1)Nc1cccnc1 [Example 208, 1-(4-{4-(8-oxa-3-azabicyclo[3.2.1]oct-3-yl)-6-[(4-piperazin-1-ylphenyl)amino]-1,3,5-triazin-2-yl}phenyl)-3-pyridin-3-ylurea]		
9.5	5280	420		CC(C)Nc1nc(-c2ccc(NC(=O)NC3CC3)cc2)nc(N2CC3CCC(C2)O3)n1 [Example 213, 1-cyclopropyl-3-(4-{4-[(1-methylethyl)amino]-6-(8-oxa-3-azabicyclo[3.2.1]oct-3-yl)-1,3,5-triazin-2-yl}phenyl)urea]		
2.9	2670	700		CC(C)Nc1nc(-c2ccc(NC(=O)NCCO)cc2)nc(N2CC3CCC(C2)O3)n1 [Example 214, 1-(2-hydroxyethyl)-3-(4-{4-[(1-methylethyl)amino]-6-(8-oxa-3-azabicyclo[3.2.1]oct-3-yl)-1,3,5-triazin-2-yl}phenyl)urea]		
< 1		170		CNC(=O)Nc1ccc(-c2nc(-c3ccc(NC(=O)Nc4cccnc4)cc3)nc(N3CCOCC3)n2)cc1 [Example 467, 1-methyl-3-[4-(4-morpholin-4-yl-6-{4-[(pyridin-3-ylcarbamoyl)amino]phenyl}-1,3,5-triazin-2-yl)phenyl]urea]		
< 1		50		CNC(=O)Nc1ccc(-c2nc(-c3ccc(NC(=O)Nc4ccncc4)cc3)nc(N3CCOCC3)n2)cc1 [Example 468, 1-methyl-3-[4-(4-morpholin-4-yl-6-{4-[(pyridin-4-ylcarbamoyl)amino]phenyl}-1,3,5-triazin-2-yl)phenyl]urea]		

Compound	IC50 (Human mTOR (FLAG-TOR)) [nM]	IC50 (PI3K-α; read-out: IC50 PI3Kα) [nM]	IC50 ([1]; Homo sapiens, LNCaP, 72 h) [nM]	IC50 (PI3K-α) [nM]	IC50 (PI3K-γ) [nM]	IC50 ([1]; MTS cell growth assay, three days after drug treatment, LNCap cells) [nM]
CN1CCN(c2ccc(NC(=O)Nc3ccc(-c4nc(N5CC6CCC(C5)O6)nc(N5C6CCC5COC6)n4)cc3)cc2)CC1 [Example 303, 1-[4-(4-methylpiperazin-1-yl)phenyl]-3-{4-[4-(3-oxa-8-azabicyclo[3.2.1]oct-8-yl)-6-(8-oxa-3-azabicyclo[3.2.1]oct-3-yl)-1,3,5-triazin-2-yl]phenyl}urea]	17		0.8			
O=C(Nc1ccncc1)Nc1ccc(-c2nc(N3C4CCC3COC4)nc(N3[C@H](CO)CC[C@@H]3CO)n2)cc1 [Example 347, 1-(4-{4-[(2R,5S)-2,5-bis(hydroxymethyl)pyrrolidin-1-yl]-6-(3-oxa-8-azabicyclo[3.2.1]oct-8-yl)-1,3,5-triazin-2-yl}phenyl)-3-pyridin-4-ylurea]		796	9		8440	
CN(C)CCOc1ccc(NC(=O)Nc2ccc(-c3nc(N4CCSCC4)nc(N4C5CCC4COC5)n3)cc2)cc1 [Example 365, 1-(4-(4-(3-oxa-8-azabicyclo[3.2.1]octan-8-yl)-6-thiomorpholino-1,3,5-triazin-2-yl)phenyl)-3-(4-(2-(dimethylamino)ethoxy)phenyl)urea]	10		280			
CNC(=O)Nc1ccc(-c2nc(-c3ccc(NC(=O)Nc4cccc(C(N)=O)c4)cc3)nc(N3CCOCC3)n2)cc1 [Example 466, 3-({[4-(4-{4-[(methylcarbamoyl)amino]phenyl}-6-morpholin-4-yl-1,3,5-triazin-2-yl)phenyl]carbamoyl}amino) benzamide]	1					420
CN1CCN(c2ccc(NC(=O)Nc3ccc(-c4nc(N5C6COCC5COC6)nc(N5C6COCC5COC6)n4)cc3)cc2)CC1 [Example 823, 1-[4-(4,6-di-3,7-dioxa-9-azabicyclo[3.3.1]non-9-yl-1,3,5-triazin-2-yl)phenyl]-3-[4-(4-methylpiperazin-1-yl)phenyl]urea]		661	55		2790	
